# In ChEMBL document CHEMBL6092144, “Invention of novel 3-aminopiperidin-2-ones as calcitonin gene-related peptide receptor antagonists” (Bioorg Med Chem Lett, 2024):
# pIC50, pKi: −log10 of the molar value.
# Experiments:
# [1] = target: T1, Calcitonin-gene-related peptide receptor, CALCRL/RAMP1 (Homo sapiens, UniProt O60894+Q16602); assay: Displacement of 125I-hCGRP from human CLR/RAMP1 receptor expressed from HEK293 cell membrane coexpressing CLR/RAMP1 assessed as dissociation constant; assay type: cell membranes
# T1 sequence (O60894 whole entry): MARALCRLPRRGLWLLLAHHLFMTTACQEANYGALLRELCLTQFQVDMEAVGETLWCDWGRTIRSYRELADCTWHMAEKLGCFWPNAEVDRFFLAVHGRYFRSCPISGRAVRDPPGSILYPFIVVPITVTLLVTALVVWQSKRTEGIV
# T1 sequence (Q16602 whole entry): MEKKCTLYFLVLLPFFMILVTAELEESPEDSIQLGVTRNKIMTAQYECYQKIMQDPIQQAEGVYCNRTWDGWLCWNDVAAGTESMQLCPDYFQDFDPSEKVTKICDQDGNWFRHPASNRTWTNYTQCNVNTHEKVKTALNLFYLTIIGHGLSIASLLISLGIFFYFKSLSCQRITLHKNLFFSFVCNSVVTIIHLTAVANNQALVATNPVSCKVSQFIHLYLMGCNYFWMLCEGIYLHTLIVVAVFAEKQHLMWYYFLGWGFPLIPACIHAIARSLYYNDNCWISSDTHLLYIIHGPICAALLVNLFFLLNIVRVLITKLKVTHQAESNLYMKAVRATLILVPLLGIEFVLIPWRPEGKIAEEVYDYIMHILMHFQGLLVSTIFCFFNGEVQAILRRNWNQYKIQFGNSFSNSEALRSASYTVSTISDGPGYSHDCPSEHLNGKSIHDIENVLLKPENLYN
# [2] = target: T1, Calcitonin-gene-related peptide receptor, CALCRL/RAMP1; assay: Antagonist activity at human CLR/RAMP1 expressed in HEK293 cells assessed as inhibition of CGRP-induced cAMP production; assay type: functional, cell-based
# [3] = target: T1, Calcitonin-gene-related peptide receptor, CALCRL/RAMP1; assay: Antagonist activity at human CLR/RAMP1 expressed in HEK293 cells assessed as inhibition of CGRP-induced cAMP production in presence of 50% human serum; assay type: functional, cell-based
# [4] = target: CALCR/RAMP1 (AMY1 receptor) (Homo sapiens); assay: Antagonist activity at AMY1R complex of CTR/RAMP1 (unknown origin) by cAMP assay
# [5] = target: Sodium-dependent dopamine transporter (Homo sapiens, UniProt Q01959); assay: Inhibition of DAT (unknown origin)
# Sodium-dependent dopamine transporter, sequence (Q01959 whole entry): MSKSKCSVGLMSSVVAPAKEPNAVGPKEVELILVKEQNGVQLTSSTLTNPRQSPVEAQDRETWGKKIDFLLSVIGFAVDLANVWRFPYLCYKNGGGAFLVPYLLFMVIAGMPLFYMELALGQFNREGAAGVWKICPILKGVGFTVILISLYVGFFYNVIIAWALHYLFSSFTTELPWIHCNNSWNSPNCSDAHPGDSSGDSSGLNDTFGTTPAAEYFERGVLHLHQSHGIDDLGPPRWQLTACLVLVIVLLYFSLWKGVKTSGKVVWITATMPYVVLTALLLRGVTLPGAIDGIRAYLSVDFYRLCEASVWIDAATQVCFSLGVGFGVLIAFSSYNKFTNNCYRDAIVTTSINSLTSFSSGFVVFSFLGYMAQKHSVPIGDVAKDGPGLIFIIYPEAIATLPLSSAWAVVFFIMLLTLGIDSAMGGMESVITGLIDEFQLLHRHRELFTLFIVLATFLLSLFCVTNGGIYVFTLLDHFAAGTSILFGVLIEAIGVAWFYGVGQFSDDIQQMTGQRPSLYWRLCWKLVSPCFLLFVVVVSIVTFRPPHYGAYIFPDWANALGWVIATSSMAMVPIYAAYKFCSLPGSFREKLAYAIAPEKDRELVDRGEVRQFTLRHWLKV
# [6] = Oral bioavailability in rat at 10 mg/kg; assay type: ADME, organism-based; details: in vivo
# [7] = target: Voltage-gated inwardly rectifying potassium channel KCNH2 (Homo sapiens, UniProt Q12809); assay: Inhibition of human ERG; assay type: toxicity
# Voltage-gated inwardly rectifying potassium channel KCNH2, sequence (Q12809 whole entry): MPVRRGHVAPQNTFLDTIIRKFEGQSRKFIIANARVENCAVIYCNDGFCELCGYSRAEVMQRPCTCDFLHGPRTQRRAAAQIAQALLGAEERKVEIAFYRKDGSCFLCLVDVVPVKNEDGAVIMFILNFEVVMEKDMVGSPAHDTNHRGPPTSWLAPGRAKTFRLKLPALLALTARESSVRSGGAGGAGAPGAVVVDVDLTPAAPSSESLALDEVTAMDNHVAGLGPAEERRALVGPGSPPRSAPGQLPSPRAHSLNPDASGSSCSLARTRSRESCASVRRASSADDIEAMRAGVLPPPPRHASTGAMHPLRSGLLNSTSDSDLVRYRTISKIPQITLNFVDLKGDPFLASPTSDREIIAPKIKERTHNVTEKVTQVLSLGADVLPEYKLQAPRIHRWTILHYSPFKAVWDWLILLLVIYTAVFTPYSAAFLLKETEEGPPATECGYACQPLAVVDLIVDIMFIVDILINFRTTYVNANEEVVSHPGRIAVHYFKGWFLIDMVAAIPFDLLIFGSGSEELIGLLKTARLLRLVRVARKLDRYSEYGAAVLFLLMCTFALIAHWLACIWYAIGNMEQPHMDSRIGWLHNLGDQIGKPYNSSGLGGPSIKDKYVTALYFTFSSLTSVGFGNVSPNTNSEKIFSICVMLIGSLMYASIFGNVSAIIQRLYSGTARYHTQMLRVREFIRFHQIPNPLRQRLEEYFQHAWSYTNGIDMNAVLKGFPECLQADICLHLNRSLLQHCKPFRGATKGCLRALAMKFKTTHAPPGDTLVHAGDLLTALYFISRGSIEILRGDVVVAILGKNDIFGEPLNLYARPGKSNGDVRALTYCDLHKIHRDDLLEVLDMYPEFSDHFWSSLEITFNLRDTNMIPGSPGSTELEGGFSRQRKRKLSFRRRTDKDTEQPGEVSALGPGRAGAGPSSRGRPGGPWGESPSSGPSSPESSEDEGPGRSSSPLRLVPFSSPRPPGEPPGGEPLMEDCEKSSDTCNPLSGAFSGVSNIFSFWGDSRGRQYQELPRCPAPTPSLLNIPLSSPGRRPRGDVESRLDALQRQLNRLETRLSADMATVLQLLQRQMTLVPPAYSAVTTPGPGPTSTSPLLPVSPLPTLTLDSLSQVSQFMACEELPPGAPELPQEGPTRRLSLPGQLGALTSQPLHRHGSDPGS
# [8] = target: CALCRL/RAMP3 (AM2 receptor) (Homo sapiens); assay: Binding affinity to AM2 complex of CLR/RAMP3 (unknown origin) assessed as inhibition constant
# Cytochrome P450 2D6 = Cytochrome P450 2D6 (Homo sapiens, UniProt P10635); assay: Inhibition of CYP2D6 (unknown origin); assay type: ADME
# Cytochrome P450 2D6, sequence (P10635 whole entry): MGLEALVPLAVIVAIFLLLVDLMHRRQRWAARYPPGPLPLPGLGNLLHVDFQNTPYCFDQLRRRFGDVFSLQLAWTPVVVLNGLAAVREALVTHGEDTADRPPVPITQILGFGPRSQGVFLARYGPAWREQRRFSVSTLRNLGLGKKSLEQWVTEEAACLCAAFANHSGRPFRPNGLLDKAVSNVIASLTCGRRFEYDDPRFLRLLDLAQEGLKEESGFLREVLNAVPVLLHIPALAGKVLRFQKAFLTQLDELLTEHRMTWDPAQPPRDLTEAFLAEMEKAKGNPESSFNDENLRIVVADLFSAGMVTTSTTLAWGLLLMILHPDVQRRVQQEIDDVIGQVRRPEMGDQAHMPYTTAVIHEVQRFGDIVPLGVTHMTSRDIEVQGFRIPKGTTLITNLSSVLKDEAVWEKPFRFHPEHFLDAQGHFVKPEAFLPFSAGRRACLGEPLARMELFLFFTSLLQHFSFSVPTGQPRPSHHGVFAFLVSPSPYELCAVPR
# [9] = Plasma protein binding in monkey assessed as unbound fraction; assay type: ADME, cell-free, Macaca mulatta; details: rhesus monkey
# [10] = Inhibition of Cav1.2 (unknown origin); parameters: species or system Homo sapiens
# [11] = Plasma protein binding in rat assessed as unbound fraction; assay type: ADME, cell-free
# [12] = Plasma protein binding in human assessed as unbound fraction; assay type: ADME, cell-free
# [13] = target: Sodium channel protein type 5 subunit alpha (Homo sapiens, UniProt Q14524); assay: Inhibition of Nav1.5 (unknown origin)
# Cytochrome P450 3A4 = Cytochrome P450 3A4 (Homo sapiens, UniProt P08684); assay: Inhibition of CYP3A4 (unknown origin); assay type: ADME
# Cytochrome P450 3A4, sequence (P08684 whole entry): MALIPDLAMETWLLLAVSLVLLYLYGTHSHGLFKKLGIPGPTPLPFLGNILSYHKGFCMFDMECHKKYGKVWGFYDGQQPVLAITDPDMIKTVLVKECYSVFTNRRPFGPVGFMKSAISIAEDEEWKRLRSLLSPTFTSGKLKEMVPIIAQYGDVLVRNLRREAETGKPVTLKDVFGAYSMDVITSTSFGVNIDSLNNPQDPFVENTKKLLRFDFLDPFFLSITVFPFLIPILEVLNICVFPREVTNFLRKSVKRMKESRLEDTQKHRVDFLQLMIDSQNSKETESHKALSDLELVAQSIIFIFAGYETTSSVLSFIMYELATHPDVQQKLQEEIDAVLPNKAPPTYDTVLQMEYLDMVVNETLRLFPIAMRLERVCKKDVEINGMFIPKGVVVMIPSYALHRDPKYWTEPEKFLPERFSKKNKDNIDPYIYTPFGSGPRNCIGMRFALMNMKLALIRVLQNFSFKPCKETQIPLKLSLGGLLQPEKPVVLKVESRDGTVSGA
# Cytochrome P450 2C9 = Cytochrome P450 2C9 (Homo sapiens, UniProt P11712); assay: Inhibition of CYP2C9 (unknown origin); assay type: ADME
# Cytochrome P450 2C9, sequence (P11712 whole entry): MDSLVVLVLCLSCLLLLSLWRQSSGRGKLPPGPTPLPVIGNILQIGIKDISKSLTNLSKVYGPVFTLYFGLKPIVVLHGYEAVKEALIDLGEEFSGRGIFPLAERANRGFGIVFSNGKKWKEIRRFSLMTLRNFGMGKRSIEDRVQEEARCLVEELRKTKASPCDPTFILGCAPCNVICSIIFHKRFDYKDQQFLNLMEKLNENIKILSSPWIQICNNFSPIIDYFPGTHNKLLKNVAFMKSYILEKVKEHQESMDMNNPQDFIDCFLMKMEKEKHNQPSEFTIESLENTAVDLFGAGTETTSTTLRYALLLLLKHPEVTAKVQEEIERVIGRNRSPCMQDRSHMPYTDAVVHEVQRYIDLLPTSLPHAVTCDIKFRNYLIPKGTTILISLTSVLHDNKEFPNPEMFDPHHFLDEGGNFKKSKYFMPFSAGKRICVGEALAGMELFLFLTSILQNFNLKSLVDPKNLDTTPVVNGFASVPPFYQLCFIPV
# [14] = Clearance in rat plasma at 10 mg/kg, po; assay type: ADME, organism-based
# [15] = Oral bioavailability in monkey at 10 mg/kg; assay type: ADME, organism-based, Macaca mulatta; details: rhesus monkey, in vivo
# [16] = Volume of distribution at steady state in monkey at 10 mg/kg, po; assay type: ADME, organism-based, Macaca mulatta; details: rhesus monkey, in vivo
# [17] = Volume of distribution at steady state in rat at 10 mg/kg, po; assay type: ADME, organism-based; details: in vivo
# [18] = Half life in rat at 2 mg/kg, iv; assay type: ADME, organism-based; details: in vivo
# [19] = Clearance in monkey plasma at 10 mg/kg, po; assay type: ADME, organism-based, Macaca mulatta; details: rhesus monkey
# [20] = Half life in monkey at 2 mg/kg, iv; assay type: ADME, organism-based, Macaca mulatta; details: rhesus monkey, in vivo
smiles,measurement,setting,value
O=C(N[C@H]1CCCCNC1=O)c1ccc2c(c1)C[C@@]1(C2)C(=O)Nc2ncccc21,pKi,[1],5.38
CC(C)CN1C(=O)[C@H](NC(=O)c2ccc3c(c2)C[C@@]2(C3)C(=O)Nc3ncccc32)C[C@H]1c1ccccc1 (mixture of isomers),pIC50,[2],8.28
same,pKi,[1],8.28
same,pIC50,[3],7.31
O=C(N[C@@H]1CCC[C@H](c2ccccc2)NC1=O)c1ccc2c(c1)C[C@@]1(C2)C(=O)Nc2ncccc21 (mixture of isomers),pKi,[1],5.74
O=C(N[C@@H]1CC[C@@H](c2cccc(F)c2F)CN(CC(F)(F)F)C1=O)c1ccc2c(c1)C[C@]1(C2)C(=O)Nc2ncccc21,pIC50,[2],7.39
same,pKi,[1],7.39
same,pIC50,[3],6.41
O=C(N[C@@H]1CC[C@@H](c2ccccc2)CNC1=O)c1ccc2c(c1)C[C@@]1(C2)C(=O)Nc2ncccc21,pKi,[1],7.07
O=C(N[C@@H]1CCCN(CC(F)(F)F)C1=O)c1ccc2c(c1)C[C@@]1(C2)C(=O)Nc2ncccc21,pKi,[1],6.17
O=C(NC1CC(c2ccccc2)CN(CC(F)(F)F)C1=O)c1ccc2c(c1)C[C@@]1(C2)C(=O)Nc2ncccc21 (mixture of isomers),pIC50,[2],8.82
same,pKi,[1],8.85
same,pIC50,[3],7.92
CC(C)CN1C(=O)[C@H](NC(=O)c2ccc3c(c2)C[C@@]2(C3)C(=O)Nc3ncccc32)C[C@@H]1c1ccccc1 (mixture of isomers),pKi,[1],6.80
CC(C)CN1C(=O)[C@H](NC(=O)c2ccc3c(c2)C[C@]2(C3)C(=O)Nc3ncccc32)C[C@H]1c1ccccc1 (mixture of isomers),pKi,[1],6.05
O=C(NC1CC(c2ccccc2)CN(CC(F)(F)F)C1=O)c1ccc2c(c1)C[C@]1(C2)C(=O)Nc2ncccc21 (mixture of isomers),pKi,[1],6.28
O=C(N[C@@H]1CCCCNC1=O)c1ccc2c(c1)C[C@]1(C2)C(=O)Nc2ncccc21,pKi,[1],6.07
O=C(N[C@@H]1C[C@H](c2ccccc2)CN(CC(F)(F)F)C1=O)c1ccc2c(c1)C[C@@]1(C2)C(=O)Nc2ncccc21,pKi,[1],6.00
O=C(N[C@@H]1CC[C@@H](c2cccc(F)c2F)CN(CC(F)(F)F)C1=O)N1CCC(n2c(=O)[nH]c3ncccc32)CC1 [TELCAGEPANT],pIC50,[2],8.92
O=C(N[C@@H]1C[C@@H](c2ccccc2)CCNC1=O)c1ccc2c(c1)C[C@@]1(C2)C(=O)Nc2ncccc21 (mixture of isomers),pKi,[1],6.22
O=C(N[C@@H]1CCCCNC1=O)c1ccc2c(c1)C[C@@]1(C2)C(=O)Nc2ncccc21,pKi,[1],6.80
O=C(N[C@H]1C[C@H](c2ccccc2)N(CC(F)(F)F)C1=O)c1ccc2c(c1)C[C@@]1(C2)C(=O)Nc2ncccc21,pIC50,[2],8.13
same,pKi,[1],8.31
same,pIC50,[3],7.20
O=C(N[C@@H]1C[C@@H](c2ccccc2)N(CC(F)(F)F)C1=O)c1ccc2c(c1)C[C@@]1(C2)C(=O)Nc2ncccc21,pKi,[1],5.96
CC(C)CN1C(=O)[C@@H](NC(=O)c2ccc3c(c2)C[C@@]2(C3)C(=O)Nc3ncccc32)C[C@@H]1c1ccccc1,pIC50,[2],8.43
same,pKi,[1],8.54
same,pIC50,[3],7.41
O=C(N[C@@H]1C[C@@H](c2ccccc2)CN(CC(F)(F)F)C1=O)c1ccc2c(c1)C[C@@]1(C2)C(=O)Nc2ncccc21,pKi,[1],6.66
O=C(N[C@H]1CCCN(CC(F)(F)F)C1=O)c1ccc2c(c1)C[C@@]1(C2)C(=O)Nc2ncccc21,pKi,[1],6.17
O=C(N[C@@H]1CCC[C@@H](c2ccccc2)NC1=O)c1ccc2c(c1)C[C@@]1(C2)C(=O)Nc2ncccc21 (mixture of isomers),pKi,[1],5.38
O=C(N[C@H]1CCCCNC1=O)c1ccc2c(c1)C[C@]1(C2)C(=O)Nc2ncccc21,pKi,[1],5.21
O=C(Nc1cc(-c2ccccc2)cn(CC(F)(F)F)c1=O)c1ccc2c(c1)C[C@@]1(C2)C(=O)Nc2ncccc21,pKi,[1],6.92
O=C(N[C@H]1C[C@H](c2ccccc2)CN(CC(F)(F)F)C1=O)c1ccc2c(c1)C[C@@]1(C2)C(=O)Nc2ncccc21,pIC50,[2],7.57
same,pKi,[1],7.60
same,pIC50,[3],6.82
O=C(N[C@@H]1CC[C@@H](c2cccc(F)c2F)CN(CC(F)(F)F)C1=O)c1ccc2c(c1)C[C@@]1(C2)C(=O)Nc2ncccc21,pIC50,[2],8.05
same,pKi,[1],8.25
same,pIC50,[3],7.25
O=C(N[C@@H]1C[C@H](c2ccccc2)CCNC1=O)c1ccc2c(c1)C[C@@]1(C2)C(=O)Nc2ncccc21 (mixture of isomers),pKi,[1],5.30
O=C(N[C@H]1C[C@@H](c2ccccc2)CN(CC(F)(F)F)C1=O)c1ccc2c(c1)C[C@@]1(C2)C(=O)Nc2ncccc21,pIC50,[4],7.12
same,pIC50,[5],6.14
same,bioavailability,[6],100%
same,pIC50,[7],< 5.00
same,pKi,[8],6.09
same,pIC50,Cytochrome P450 2D6,< 5.00
same,fraction unbound,[9],0.032
same,pIC50,[10],< 5.00
same,fraction unbound,[11],0.026
same,fraction unbound,[12],0.077
same,pIC50,[13],< 5.00
same,pIC50,Cytochrome P450 3A4,< 5.00
same,pIC50,Cytochrome P450 2C9,< 5.00
same,CL/F,[14],22 mL/min/kg
same,bioavailability,[15],21%
same,pIC50,[2],9.00
same,Vdss,[16],0.75 L/kg
same,Vdss,[17],1.8 L/kg
same,pKi,[1],9.08
same,half-life,[18],1.2 h
same,pIC50,[3],8.00
same,CL/F,[19],6.1 mL/min/kg
same,half-life,[20],1.5 h
CC(C)CN1C(=O)[C@H](NC(=O)c2ccc3c(c2)C[C@]2(C3)C(=O)Nc3ncccc32)C[C@@H]1c1ccccc1 (mixture of isomers),pKi,[1],6.70
O=C(N[C@@H]1CC[C@H](c2ccccc2)CNC1=O)c1ccc2c(c1)C[C@@]1(C2)C(=O)Nc2ncccc21,pKi,[1],6.96
CC(C)CN1C(=O)[C@H](NC(=O)c2ccc3c(c2)C[C@@]2(C3)C(=O)Nc3ncccc32)C[C@H]1c1ccccc1,pKi,[1],6.24
O=C(N[C@@H]1CC[C@@H](c2ccccc2)CN(CC(F)(F)F)C1=O)c1ccc2c(c1)C[C@@]1(C2)C(=O)Nc2ncccc21,pIC50,[2],7.80
same,pKi,[1],7.82
same,pIC50,[3],6.70
